Measurements reported in ChEMBL document CHEMBL1154899, “Synthesis and biological evaluation of caffeic acid 3,4-dihydroxyphenethyl ester” (J Nat Prod, 2010).

What was measured:
Assay type in all cases: functional
SNB-75 [1] = assay: Antiproliferative activity against human SNB75 cells assessed as cell growth at 50 uM by SRB assay; conditions: read-out: Activity
CAKI-1 [2] = assay: Antiproliferative activity against human Caki1 cells assessed as cell growth at 500 uM by SRB assay; conditions: read-out: Activity
UO-31 = assay: Antiproliferative activity against human UO31 cells assessed as cell growth at 5 uM by SRB assay; conditions: read-out: Activity
MDA-MB-435 [3] = assay: Antiproliferative activity against human MDA-MB-435 cells assessed as cell growth at 0.5 uM by SRB assay; conditions: read-out: Activity
LOX IMVI [4] = assay: Antiproliferative activity against human LOXIMVI cells assessed as cell growth at 5 uM by SRB assay; conditions: read-out: Activity
RXF 393 = assay: Antiproliferative activity against human RXF393 cells assessed as cell growth at 5 uM by SRB assay; conditions: read-out: Activity
CAKI-1 [5] = assay: Antiproliferative activity against human Caki1 cells assessed as cell growth at 0.5 uM by SRB assay; conditions: read-out: Activity
SK-MEL-2 = assay: Antiproliferative activity against human SK-MEL-2 cells assessed as cell growth at 50 uM by SRB assay; conditions: read-out: Activity
MOLT-4 [6] = assay: Antiproliferative activity against human MOLT4 cells assessed as cell growth at 0.5 uM by SRB assay; conditions: read-out: Activity
HCC 2998 = assay: Antiproliferative activity against human HCC2998 cells assessed as cell growth at 0.5 uM by SRB assay; conditions: read-out: Activity
HL-60(TB) = assay: Antiproliferative activity against human HL-60(TB) cells assessed as cell growth at 50 uM by SRB assay; conditions: read-out: Activity
SF-539 [7] = assay: Antiproliferative activity against human SF539 cells assessed as cell growth at 50 uM by SRB assay; conditions: read-out: Activity
786-0 [8] = assay: Antiproliferative activity against human 786-0 cells assessed as cell growth at 0.5 uM by SRB assay; conditions: read-out: Activity
OVCAR-4 = assay: Antiproliferative activity against human OVCAR4 cells assessed as cell growth at 5 mM by SRB assay; conditions: read-out: Activity
MDA-MB-435 [9] = assay: Antiproliferative activity against human MDA-MB-435 cells assessed as cell growth at 5 uM by SRB assay; conditions: read-out: Activity
SNB-75 [10] = assay: Antiproliferative activity against human SNB75 cells assessed as cell growth at 5 mM by SRB assay; conditions: read-out: Activity
SNB-19 = assay: Antiproliferative activity against human SNB19 cells assessed as cell growth at 50 uM by SRB assay; conditions: read-out: Activity
SW-620 = assay: Antiproliferative activity against human SW620 cells assessed as cell growth at 5 uM by SRB assay; conditions: read-out: Activity
K562 [11] = assay: Antiproliferative activity against human K562 cells assessed as cell growth at 50 uM by SRB assay; conditions: read-out: Activity
K562 [12] = assay: Antiproliferative activity against human K562 cells assessed as cell growth at […] by SRB assay; conditions: read-out: Activity
[13] = Antiproliferative activity against human […] cells assessed as cell growth at 50 uM by SRB assay; conditions: read-out: Activity
OVCAR-3 = assay: Antiproliferative activity against human OVCAR-3 cells assessed as cell growth at 50 uM by SRB assay; conditions: read-out: Activity
SF-268 [14] = assay: Antiproliferative activity against human SF268 cells by SRB assay
UACC-257 = assay: Antiproliferative activity against human UACC257 cells by SRB assay
DU-145 = assay: Antiproliferative activity against human DU145 cells assessed as cell growth at 50 uM by SRB assay; conditions: read-out: Activity
SK-MEL-28 = assay: Antiproliferative activity against human SK-MEL-28 cells assessed as cell growth at 50 uM by SRB assay; conditions: read-out: Activity
T47D = assay: Antiproliferative activity against human T47D cells assessed as cell growth at 50 uM by SRB assay; conditions: read-out: Activity
SR = assay: Antiproliferative activity against human SR cells by SRB assay
MOLT-4 [15] = assay: Antiproliferative activity against human MOLT4 cells assessed as cell growth at 500 uM by SRB assay; conditions: read-out: Activity
786-0 [16] = assay: Antiproliferative activity against human 786-0 cells assessed as cell growth at 500 uM by SRB assay; conditions: read-out: Activity
SF-539 [17] = assay: Antiproliferative activity against human SF539 cells assessed as cell growth at 5 uM by SRB assay; conditions: read-out: Activity
A498 = assay: Antiproliferative activity against human A498 cells by SRB assay
SNB-75 [18] = assay: Antiproliferative activity against human SNB75 cells assessed as cell growth at 5 uM by SRB assay; conditions: read-out: Activity
MCF7 = assay: Antiproliferative activity against human MCF7 cells assessed as cell growth at 0.5 uM by SRB assay; conditions: read-out: Activity
SF-268 [19] = assay: Antiproliferative activity against human SF268 cells assessed as cell growth at 50 uM by SRB assay; conditions: read-out: Activity
K562 [20] = assay: Antiproliferative activity against human K562 cells assessed as cell growth at 5 uM by SRB assay; conditions: read-out: Activity
NCI/ADR-RES = assay: Antiproliferative activity against human NCI/ADR-RES cells assessed as cell growth at 0.5 uM by SRB assay; conditions: read-out: Activity
SN12C = assay: Antiproliferative activity against human SN12C cells assessed as cell growth at 5 uM by SRB assay; conditions: read-out: Activity
ACHN = assay: Antiproliferative activity against human ACHN cells by SRB assay
HT-29 = assay: Antiproliferative activity against human HT-29 cells assessed as cell growth at 0.5 uM by SRB assay; conditions: read-out: Activity
TK-10 = assay: Antiproliferative activity against human TK10 cells assessed as cell growth at 50 uM by SRB assay; conditions: read-out: Activity
NCI-H226 = assay: Antiproliferative activity against human NCI-H226 cells assessed as cell growth at 5 uM by SRB assay; conditions: read-out: Activity
A549 = assay: Antiproliferative activity against human A549 cells assessed as cell growth at 0.5 uM by SRB assay; conditions: read-out: Activity
SK-MEL-5 = assay: Antiproliferative activity against human SK-MEL-5 cells assessed as cell growth at 50 uM by SRB assay; conditions: read-out: Activity
LOX IMVI [21] = assay: Antiproliferative activity against human LOXIMVI cells assessed as cell growth at 50 uM by SRB assay; conditions: read-out: Activity
[22] = read-out: LC50 (the source's name)
[23] = read-out: pLC50 (the source's name) (converted)

Work on `O=C(/C=C/c1ccc(O)c(O)c1)OCCc1ccc(O)c(O)c1` yielded a growth at 50 µM (SNB-75 [1]) of 72%, a growth at 500 µM (CAKI-1 [2]) of 68% and a growth at 5 µM (UO-31) of 93%. The growth at 0.5 µM (MDA-MB-435 [3]) was 99%, the growth at 5 µM (LOX IMVI [4]) was 101% and the growth at 5 µM (RXF 393) was 84%. The growth at 0.5 µM (CAKI-1 [5]) was 82%, the growth at 50 µM (SK-MEL-2) was 91% and the growth at 0.5 µM (MOLT-4 [6]) was 101%. It also gave a growth at 0.5 µM (HCC 2998) of 93%, a growth at 50 µM (HL-60(TB)) of 82% and a growth at 50 µM (SF-539 [7]) of 89%. It also gave a growth at 0.5 µM (786-0 [8]) of 97%, a growth at 5000 µM (OVCAR-4) of 21% and a growth at 5 µM (MDA-MB-435 [9]) of 92%. For the same compound, the growth at 5000 µM (SNB-75 [10]) was 30%, the growth at 50 µM (SNB-19) was 94% and the growth at 5 µM (SW-620) was 95%. The growth at 50 µM (K562 [11]) was 90%, the growth (K562 [12]) was -8% and the growth at 50 µM [13] was 54%. It also gave a growth at 50 µM (OVCAR-3) of 90%, a GI50 (SF-268 [14]; read-out: GI50) of 6.93 µM and a CC50 (SF-268 [14]; [22]) of over 50 µM. For the same compound, the TGI (SF-268 [14]; read-out: TGI) was over 50 µM, the GI50 (SF-268 [14]; read-out: pGI50 (converted)) was 6.61 µM and the CC50 (SF-268 [14]; [23]) was over 50.1 µM. The TGI (SF-268 [14]; read-out: pTGI) was over 50.1 µM, the GI50 (UACC-257; read-out: GI50) was 15.4 µM and the CC50 (UACC-257; [22]) was over 50 µM. For the same compound, the TGI (UACC-257; read-out: TGI) was over 50 µM, the GI50 (UACC-257; read-out: pGI50 (converted)) was 15.5 µM and the CC50 (UACC-257; [23]) was over 50.1 µM. For the same compound, the TGI (UACC-257; read-out: pTGI) was over 50.1 µM, the growth at 50 µM (DU-145) was 100% and the growth at 50 µM (SK-MEL-28) was 93%. It also gave a growth at 50 µM (T47D) of 93%, a GI50 (SR; read-out: GI50) of 1.49 µM and a CC50 (SR; [22]) of over 50 µM. The TGI (SR; read-out: TGI) was 12.7 µM, the GI50 (SR; read-out: pGI50 (converted)) was 1.48 µM and the CC50 (SR; [23]) was over 50.1 µM. For the same compound, the TGI (SR; read-out: pTGI (converted)) was 12.6 µM, the growth at 500 µM (MOLT-4 [15]) was 39% and the growth at 500 µM (786-0 [16]) was 81%. For the same compound, the growth at 5 µM (SF-539 [17]) was 81%, the GI50 (A498; read-out: GI50) was 8.05 µM and the CC50 (A498; [22]) was over 50 µM. It also gave a TGI (A498; read-out: TGI) of 36.1 µM, a GI50 (A498; read-out: pGI50 (converted)) of 8.13 µM and a CC50 (A498; [23]) of over 50.1 µM. The TGI (A498; read-out: pTGI (converted)) was 36.3 µM, the growth at 5 µM (SNB-75 [18]) was 75% and the growth at 0.5 µM (MCF7) was 94%. For the same compound, the growth at 50 µM (SF-268 [19]) was 85%, the growth at 5 µM (K562 [20]) was 95% and the growth at 0.5 µM (NCI/ADR-RES) was 97%. The growth at 5 µM (SN12C) was 80%, the GI50 (ACHN; read-out: GI50) was 2.94 µM and the CC50 (ACHN; [22]) was over 50 µM. The TGI (ACHN; read-out: TGI) was 38.7 µM, the GI50 (ACHN; read-out: pGI50 (converted)) was 2.95 µM and the CC50 (ACHN; [23]) was over 50.1 µM. It also gave a TGI (ACHN; read-out: pTGI (converted)) of 38.9 µM, a growth at 0.5 µM (HT-29) of 104% and a growth at 50 µM (TK-10) of 94%. For the same compound, the growth at 5 µM (NCI-H226) was 99%, the growth at 0.5 µM (A549) was 105% and the growth at 50 µM (SK-MEL-5) was 102%. It also gave a growth at 50 µM (LOX IMVI [21]) of 98%.
